{"source": "patent US20250375417A1", "about": "“OREXIN RECEPTOR 2 (OX2R) AGONIST FOR USE IN NARCOLEPSY TYPE 1 (NT1)” (TAKEDA PHARMACEUTICAL COMPANY LIMITED, priority 2024, published 2025)", "key": {"participants with NT1 [1]": {"test_system": "participants with NT1", "test": "Maintenance of Wakefulness Test (MWT) sleep onset latency, Phase 2 NT1 trial (Example 1)", "format": "in vivo, human", "procedure": "In some aspects of the methods described herein, the subject experiences a higher mean sleep latency (also referred to as sleep onset latency or SOL) from the Maintenance of Wakefulness Test (MWT) after a treatment period compared to an untreated subject. The MWT is a validated, objective measure that evaluates a person's ability to remain awake under soporific conditions for a defined period of time. Because there is no biological measure of wakefulness, wakefulness is measured indirectly by the inability or delayed tendency to fall asleep. This tendency to fall asleep is measured via electroencephalography-derived sleep latency in the MWT. One MWT, that includes four 40-minute wake trials, is done on each day specified in the Schedule of Activities of the trial. Sleep latency in each wake trial is recorded. Participants are required to stay awake in between the 4 MWT wake trials.\nDuring each MWT wake trial, participants are instructed to sit in a bed or reclining chair and remain awake for as long as possible in a dimly lit room. Wake trials are ended after 40 minutes if no sleep occurs. If no sleep has been observed according to these rules, then the latency is defined as 40 minutes.\nRandomization was stratified by region. Starting on the morning of Day 1, the study drug was administered at approximately the same time each day for 8 or 12 weeks. If the participant wished to enroll in the long-term extension (LTE) study described in Example 3 but the LTE study had not started at the participant's site when the participant completed the Week 8 visit of the current study, the participant was allowed to continue in the current study for an additional 4 weeks.\nThe following doses were studied: • Compound A Dose Regimen 1:0.5 mg twice daily approximately 3 hours apart. • Compound A Dose Regimen 2:2 mg twice daily approximately 3 hours apart. • Compound A Dose Regimen 3:2 mg followed by 5 mg approximately 3 hours apart. • Compound A Dose Regimen 4:7 mg once daily (QD). • Other products required for the study: Matching placebo.\nDose regimens included once daily (QD) or twice daily (approximately 3 hours apart) dosing. Study treatment was administered at approximately 8 AM and 11 AM. (Participants assigned to a QD dose regimen received placebo for the second dose. Participants assigned to placebo received placebo for both doses).\nEndpoints included change from baseline to Week 8 in mean sleep onset latency on the Maintenance of Wakefulness Test (SOL-MWT; primary endpoint), ESS total score, weekly cataplexy rate (WCR), and occurrence of treatment-emergent adverse events (TEAEs)."}, "participants with NT1 [2]": {"test_system": "participants with NT1", "test": "Nocturnal polysomnography (PSG) sleep architecture, Phase 2 NT1 trial", "format": "in vivo, human", "text": "Polysomnography (PSG) was collected at baseline and after 27 and 54 days of treatment. Sleep was manually scored following AASM guidelines; sleep metrics were extracted then computed by whole night and by quarter-night. Continuous accelerometry (Empatica EmbracePlus watch) allowed assessment of sleep in a naturalistic manner at home. Daily sleep diaries were used to capture subjective reports. Mixed effects models were fit with treatment, quarter-night, visit, and their interactions as fixed effects and random intercepts per subject. A reference PSG dataset (Vilela M, et al. J Sleep Res 2024; e14216) from CHU Montpellier (49 clinical controls and 114 patients with NT1, all drug-free) was analyzed to establish DNS characteristics of NT1."}}, "note": "Marks after values point to notes of the source that are not given here.", "data": [{"smiles": "CCS(=O)(=O)N[C@@H]1[C@H](Cc2cccc(-c3cc(F)cc(F)c3)c2F)N(C(=O)C(C)(C)O)CC1(F)F", "note": "[Compound A, N-{(2S,3R)-4,4-difluoro-1-(2-hydroxy-2-methylpropanoyl)-2-[(2,3′,5′-trifluoro[1,1′-biphenyl]-3-yl)methyl]pyrrolidin-3-yl}ethanesulfonamide]", "values": [{"measurement": "LS mean (SE) change from baseline to Week 8 in SOL-MWT", "setting": "participants with NT1 [1]; 0.5 mg/0.5 mg", "value": "12.49 (2.13) minutes"}, {"measurement": "LS mean (SE) change from baseline to Week 8 in SOL-MWT", "setting": "participants with NT1 [1]; 2 mg/2 mg", "value": "23.50 (2.04) minutes"}, {"measurement": "LS mean (SE) change from baseline to Week 8 in SOL-MWT", "setting": "participants with NT1 [1]; 2 mg/5 mg", "value": "25.42 (2.07) minutes"}, {"measurement": "LS mean (SE) change from baseline to Week 8 in SOL-MWT", "setting": "participants with NT1 [1]; 7 mg", "value": "14.96 (1.95) minutes"}, {"measurement": "PSG % of time in N1, change from baseline to week 8", "setting": "participants with NT1 [2]; 7 mg QD", "value": "2.90* %"}, {"measurement": "PSG % of time in N2, change from baseline to week 8", "setting": "participants with NT1 [2]; 7 mg QD", "value": "−6.10* %"}, {"measurement": "PSG % of time in N3, change from baseline to week 8", "setting": "participants with NT1 [2]; 7 mg QD", "value": "−0.12", "unit": "%"}, {"measurement": "PSG % of time in REM, change from baseline to week 8", "setting": "participants with NT1 [2]; 7 mg QD", "value": "−4.48* %"}, {"measurement": "PSG % of time in WASO, change from baseline to week 8", "setting": "participants with NT1 [2]; 7 mg QD", "value": "7.81* %"}, {"measurement": "PSG No. of awakenings, change from baseline to week 8", "setting": "participants with NT1 [2]; 7 mg QD", "value": "6.3*"}, {"measurement": "PSG SOL, change from baseline to week 8", "setting": "participants with NT1 [2]; 7 mg QD", "value": -6.8, "unit": "min"}, {"measurement": "PSG TST, change from baseline to week 8", "setting": "participants with NT1 [2]; 7 mg QD", "value": "−42.7* min"}, {"measurement": "PSG WASO, change from baseline to week 8", "setting": "participants with NT1 [2]; 7 mg QD", "value": "38.1* min"}, {"measurement": "PSG % of time in N1, change from baseline to week 8", "setting": "participants with NT1 [2]; 0.5/0.5 mg", "value": 1.13, "unit": "%"}, {"measurement": "PSG % of time in N2, change from baseline to week 8", "setting": "participants with NT1 [2]; 0.5/0.5 mg", "value": "−1.75", "unit": "%"}, {"measurement": "PSG % of time in N3, change from baseline to week 8", "setting": "participants with NT1 [2]; 0.5/0.5 mg", "value": "−0.27", "unit": "%"}, {"measurement": "PSG % of time in REM, change from baseline to week 8", "setting": "participants with NT1 [2]; 0.5/0.5 mg", "value": 1.28, "unit": "%"}, {"measurement": "PSG % of time in WASO, change from baseline to week 8", "setting": "participants with NT1 [2]; 0.5/0.5 mg", "value": "−0.39", "unit": "%"}, {"measurement": "PSG No. of awakenings, change from baseline to week 8", "setting": "participants with NT1 [2]; 0.5/0.5 mg", "value": "−2.3"}, {"measurement": "PSG SOL, change from baseline to week 8", "setting": "participants with NT1 [2]; 0.5/0.5 mg", "value": 0.4, "unit": "min"}, {"measurement": "PSG TST, change from baseline to week 8", "setting": "participants with NT1 [2]; 0.5/0.5 mg", "value": -5.4, "unit": "min"}, {"measurement": "PSG WASO, change from baseline to week 8", "setting": "participants with NT1 [2]; 0.5/0.5 mg", "value": -3.6, "unit": "min"}, {"measurement": "PSG % of time in N1, change from baseline to week 8", "setting": "participants with NT1 [2]; 2/2 mg", "value": 1.76, "unit": "%"}, {"measurement": "PSG % of time in N2, change from baseline to week 8", "setting": "participants with NT1 [2]; 2/2 mg", "value": 0.65, "unit": "%"}, {"measurement": "PSG % of time in N3, change from baseline to week 8", "setting": "participants with NT1 [2]; 2/2 mg", "value": 0.45, "unit": "%"}, {"measurement": "PSG % of time in REM, change from baseline to week 8", "setting": "participants with NT1 [2]; 2/2 mg", "value": "−2.43", "unit": "%"}, {"measurement": "PSG % of time in WASO, change from baseline to week 8", "setting": "participants with NT1 [2]; 2/2 mg", "value": "−0.43", "unit": "%"}, {"measurement": "PSG No. of awakenings, change from baseline to week 8", "setting": "participants with NT1 [2]; 2/2 mg", "value": 2.5}, {"measurement": "PSG SOL, change from baseline to week 8", "setting": "participants with NT1 [2]; 2/2 mg", "value": -1.9, "unit": "min"}, {"measurement": "PSG TST, change from baseline to week 8", "setting": "participants with NT1 [2]; 2/2 mg", "value": 8.4, "unit": "min"}, {"measurement": "PSG WASO, change from baseline to week 8", "setting": "participants with NT1 [2]; 2/2 mg", "value": -2.4, "unit": "min"}, {"measurement": "PSG % of time in N1, change from baseline to week 8", "setting": "participants with NT1 [2]; 2/5 mg", "value": "3.55* %"}, {"measurement": "PSG % of time in N2, change from baseline to week 8", "setting": "participants with NT1 [2]; 2/5 mg", "value": "−1.69", "unit": "%"}, {"measurement": "PSG % of time in N3, change from baseline to week 8", "setting": "participants with NT1 [2]; 2/5 mg", "value": "−0.44", "unit": "%"}, {"measurement": "PSG % of time in REM, change from baseline to week 8", "setting": "participants with NT1 [2]; 2/5 mg", "value": "−4.08* %"}, {"measurement": "PSG % of time in WASO, change from baseline to week 8", "setting": "participants with NT1 [2]; 2/5 mg", "value": 2.57, "unit": "%"}, {"measurement": "PSG No. of awakenings, change from baseline to week 8", "setting": "participants with NT1 [2]; 2/5 mg", "value": 3.2}, {"measurement": "PSG SOL, change from baseline to week 8", "setting": "participants with NT1 [2]; 2/5 mg", "value": -3.4, "unit": "min"}, {"measurement": "PSG TST, change from baseline to week 8", "setting": "participants with NT1 [2]; 2/5 mg", "value": -19.9, "unit": "min"}, {"measurement": "PSG WASO, change from baseline to week 8", "setting": "participants with NT1 [2]; 2/5 mg", "value": 11.0, "unit": "min"}, {"measurement": "REM sleep architecture per quarter night (in-clinic PSG)", "setting": "participants with NT1 [2]; week 8 (FIG. 6A)", "value": "shifted REM sleep from early to later in the night without reducing the total REM"}, {"measurement": "Rate of transitions between REM and wake/N1", "setting": "participants with NT1 [2]; week 8, except in the 0.5 mg/0.5 mg cohort (FIG. 6B)", "value": "reduced the rate of sleep/wake transitions early in the night"}]}]}
